Assay results as given in patent US8853281B2, “Cysteine protease inhibitors” (Medivir UK Ltd, priority 2008, dated 2014).

Key:
Type in all cases: biochemical
cathepsin K = target: T1, cathepsin K (Homo sapiens, UniProt P43235); experiment: Determination of cathepsin K proteolytic catalytic activity (H-D-Ala-Leu-Lys-AMC fluorogenic substrate); details: human recombinant enzyme 5 nM, ambient temperature; read-out: Ki Cat. K
T1 construct: made in house; host or cells: not fixed: E coli, Pichia or Baculovirus systems named as options
T1 sequence (P43235 115-329): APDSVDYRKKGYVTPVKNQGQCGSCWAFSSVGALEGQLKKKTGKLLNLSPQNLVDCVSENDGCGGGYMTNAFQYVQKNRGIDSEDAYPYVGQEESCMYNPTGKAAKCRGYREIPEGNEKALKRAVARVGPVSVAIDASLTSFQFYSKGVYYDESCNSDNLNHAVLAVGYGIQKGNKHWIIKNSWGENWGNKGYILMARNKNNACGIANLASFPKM
Description: Determination of Cathepsin K Proteolytic Catalytic Activity
Convenient assays for cathepsin K are carried out using human recombinant enzyme, such as that described in PDB.
DE Homo sapiens cathepsin K (pycnodysostosis), mRNA (cDNA clone MGC:23107
The recombinant cathepsin K can be expressed in a variety of commercially available expression systems including E coli, Pichia and Baculovirus systems. The purified enzyme is activated by removal of the prosequence by conventional methods.
Standard assay conditions for the determination of kinetic constants used a fluorogenic peptide substrate, typically H-D-Ala-Leu-Lys-AMC, and were determined in either 100 mM Mes/Tris, pH 7.0 containing 1 mM EDTA and 10 mM 2-mercaptoethanol or 100 mMNa phosphate, imM EDTA, 0.1% PEG4000 pH 6.5 or 100 mM Na acetate, pH 5.5 containing 5 mM EDTA and 20 mM cysteine, in each case optionally with […] as stabiliser. The enzyme concentration used was 5 nM. The stock substrate solution was prepared at 10 mM in DMSO. Screens were carried out at a fixed substrate concentration of 60 μM and detailed kinetic studies with doubling dilutions of substrate from 250 μM. The total DMSO concentration in the assay was kept below 3%. All assays were conducted at ambient temperature. Product fluorescence (excitation at 390 nm, emission at 460 nm) was monitored with a Labsystems Fluoroskan Ascent fluorescent plate reader. Product progress curves were generated over 15 minutes following generation of AMC product.
(§1) Potential inhibitors are screened using the above assay with variable concentrations of test compound. Reactions were initiated by addition of enzyme to buffered solutions of substrate and inhibitor. Ki values were calculated according to equation 1.
(§2) [formula] where v0 is the velocity of the reaction, V is the maximal velocity, S is the concentration of substrate with Michaelis constant of KM, and I is the concentration of inhibitor.

human cathepsin L = human cathepsin L (Homo sapiens, UniProt P07711); experiment: Cathepsin L Ki (H-D-Val-Leu-Lys-AMC substrate); details: human cathepsin L 5 nM, sodium acetate pH 5.5; read-out: Ki Cat. L
Chain of human cathepsin L (P07711 114-333): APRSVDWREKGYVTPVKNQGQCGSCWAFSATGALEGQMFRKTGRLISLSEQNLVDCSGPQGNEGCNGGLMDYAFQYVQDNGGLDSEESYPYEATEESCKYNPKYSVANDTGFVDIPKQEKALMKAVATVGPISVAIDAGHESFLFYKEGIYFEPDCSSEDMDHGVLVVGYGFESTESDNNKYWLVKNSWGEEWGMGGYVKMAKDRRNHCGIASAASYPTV
Description: The procedure above with the following amendments is used for the determination of Ki for cathepsin L.
The enzyme is commercially available human cathepsin L (for example Calbiochem). The substrate is H-D-Val-Leu-Lys-AMC available from Bahcem. The assay buffer is 100 mM sodium acetate 1 mM EDTA, pH5.5) The DMSO stock (10 mM in 100% DMSO) is diluted to 10% in assay buffer. Enzyme is prepared at 5 nM concentration in assay buffer plus 1 mM dithiothreitol just before use. 2 ul of 10 mM inhibitor made up in 100% DMSO is dispensed into row A. 10 μl of 50 μM substrate (= 1/200 dilution of 10 mM stock in DMSO, diluted in assay buffer).
as §1, §2

human cathepsin S = target: T2, human cathepsin S (Homo sapiens, UniProt P25774); experiment: Cathepsin S Ki determination (boc-Val-Leu-Lys-AMC fluorescent substrate); details: baculovirus-expressed human cathepsin S 2 nM, pH 6.5, competitive inhibition fit; read-out: Ki Cat. S
T2 construct: made in house; host or cells: baculovirus expression system
T2 sequence (P25774 115-331): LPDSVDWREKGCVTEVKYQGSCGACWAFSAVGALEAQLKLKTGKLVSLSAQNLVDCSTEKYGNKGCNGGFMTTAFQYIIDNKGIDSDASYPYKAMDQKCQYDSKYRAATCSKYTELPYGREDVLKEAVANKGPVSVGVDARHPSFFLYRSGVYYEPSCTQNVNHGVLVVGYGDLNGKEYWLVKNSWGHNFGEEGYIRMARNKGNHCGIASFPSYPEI
Description: Cathepsin S Ki Determination
The assay uses baculovirus-expressed human cathepsin S and the boc-Val-Leu-Lys-AMC fluorescent substrate available from Bachem in a 384 well plate format, in which 7 test compounds can be tested in parallel with a positive control comprising a known cathepsin S inhibitor comparator.
280 μl/well of 12.5% DMSO are added to rows B-H of two columns of a 96 deep well polypropylene plate. 70 μl/well of substrate is added to row A. 2×250 μl/well of assay buffer (100 mM Na phosphate, 100 mM NaCl, pH 6.5) is added to row A, mixed, and double diluted down the plate to row H.
100 μl/well of assay buffer is added to columns 2-5 and 7-12 of 4 rows of a 96 well V bottom polypropylene plate. 200 μl/well of assay buffer is added to columns 1 and 6.
The first test compound prepared in DMSO is added to column 1 of the top row, typically at a volume to provide between 10 and 30 times the initially determined rough Ki. The rough Ki is calculated from a preliminary run in which 10 μl/well of 1 mM boc-VLK-AMC ( 1/10 dilution of 10 mM stock in DMSO diluted into assay buffer) is dispensed to rows B to H and 20 μl/well to row A of a 96 well Microfluor™ plate. 2 μl of each 10 mM test compound is added to a separate well on row A, columns 1-10. Add 90 μl assay buffer containing 1 mM DTT and 2 nM cathepsin S to each well of rows B-H and 180 μl to row A. Mix row A using a multichannel pipette and double dilute to row G. Mix row H and read in the fluorescent spectrophotometer. The readings are Prism data fitted to the competitive inhibition equation, setting S=100 μM and KM=100 μM to obtain an estimate of the Ki, up to a maximum of 100 μM.
The second test compound is added to column 6 of the top row, the third to column 1 of the second row etc. Add 1 μl of comparator to column 6 of the bottom row. Mix column 1 and double dilute to column 5. Mix column 6 and double dilute to column 10.
Using an 8-channel multistepping pipette set to 5×10 μl, distribute 10 μl/well of substrate to the 384 well assay plate. Distribute the first column of the substrate dilution plate to all columns of the assay plate starting at row A. The tip spacing of the multichannel pipette will correctly skip alternate rows. Distribute the second column to all columns starting at row B.
Using a 12-channel multistepping pipette set to 4×10 μl, distribute 10 μl/well of inhibitor to the 384 well assay plate. Distribute the first row of the inhibitor dilution plate to alternate rows of the assay plate starting at A1. The tip spacing of the multichannel pipette will correctly skip alternate columns. Similarly, distribute the second, third and fourth rows to alternate rows and columns starting at A2, B1 and B2 respectively.
Mix 20 ml assay buffer and 20 μl 1M DTT. Add sufficient cathepsin S to give 2 nM final concentration.
Using the a distributor such as a Multidrop 384, add 30 μl/well to all wells of the assay plate and read in fluorescent spectrophotomoter such as an Ascent.
Fluorescent readings, (excitation and emission wavelengths 390 nm and 460 nm respectively, set using bandpass filters) reflecting the extent of enzyme cleavage of the fluorescent substrate, […] the inhibitor, are linear rate fitted for each well.
Fitted rates for all wells for each inhibitor are fitted to the competitive inhibition equation using SigmaPlot 2000 to determine V, Km and Ki values.
as §1, §2

| SMILES | Ki (cathepsin K) [nM] | Ki (human cathepsin L) [nM] | Ki (human cathepsin S) [nM] |
| --- | --- | --- | --- |
| Cn1ccc(NC(=O)C(=O)[C@]2(NC(=O)[C@H](CC3(C)CCCC3)NC(=O)N3CCCC3)C[C@H](F)C2)n1 [Example 123, Pyrrolidine-1-carboxylic Acid [1-[3-fluoro-1-(1-methyl-1H-pyrazol-3-ylaminooxalyl)-cyclobutylcarbamoyl]-2-(1-methyl-cyclopentyl)-ethyl]-amide] | 180 | 1500 | 0.35 |
| Cn1ccc(NC(=O)C(=O)C2(NC(=O)[C@H](CC3(C)CCCC3)NC(=O)C3CC3)CC(F)C2)n1 (stereo partly drawn) [Example 60] | 360 | 1700 | 0.24 |
| CNC(=O)C(=O)C1(NC(=O)[C@H](CC(C)(C)C)NC(=O)c2ccc(NS(=O)(=O)c3ccccc3)cc2)CCC1 [Example 75] | 310 | 14000 | 0.59 |
| CC1(C[C@H](NC(=O)c2ccoc2)C(=O)NC2(C(=O)C(=O)NC3CC3)CC(F)(F)C2)CCCC1 [Example 27] | 2300 | 12000 | 0.79 |
| CC1(C[C@H](NC(=O)N2CCOCC2)C(=O)NC2(C(=O)C(=O)NC3CC3)CCC2)CCCC1 [Example 2] | 3500 | 7100 | 2.3 |
| CC1(C[C@H](NC(=O)N2CCOCC2)C(=O)NC2(C(=O)C(=O)NCCCCl)CCC2)CCCC1 [Example 35] | 3500 | 6300 | 2 |
| Cn1ccc(NC(=O)C(=O)C2(NC(=O)[C@H](CC3CCCCC3)NC(=O)N3CCOCC3)CC(F)(F)C2)n1 [Example 111] | 3600 | 200 | 0.65 |
| COC1CC(NC(=O)C(CC2(C)CCC2)NC(=O)N2CCOCC2)(C(=O)C(=O)NC2CC2)C1 (single isomer, unassigned) [Example 122] | 1000 | 3800 | 3.9 |
| Cn1ccc(NC(=O)C(=O)C2(NC(=O)[C@H](CC3(C)CCCC3)NC(=O)N3CCOCC3)CCC2)n1 [Example 6] | 460 | 600 | 0.19 |
| O=C(NC1CC1)C(=O)C1(NC(=O)[C@H](CC2(F)CCCC2)NC(=O)c2ccc(O)c(F)c2)CC(F)(F)C1 [Example 50, N-[1-(1-Cyclopropylaminooxalyl-3,3-difluoro-cyclobutylcarbamoyl)-2-(1-fluoro-cyclopentyl)-ethyl]-3-fluoro-4-hydroxy-benzamide] | 2400 | 3100 | 1 |
